{"source": "patent US8110348B2", "about": "“Methods and compositions for the diagnosis and treatment of schizophrenia” (priority 2005, dated 2012)", "key": {"hippocampal neurons": {"system": "hippocampal neurons", "assay": "Primary and secondary dendrite number in cultured hippocampal neurons", "format": "cell-based, rat", "excerpt": "In this example, the effects of overexpression of NOS1AP protein in neurons were examined using primary cultures of hippocampal neurons. cDNAs encoding the full-length NOS1AP protein (SEQ ID No. 2) and NOS1AP-S protein (SEQ ID No. 4) were separately cloned into expression vectors and transfected along with GFP (to elucidate neuronal morphology) at 10 days in vitro, a time when dendrite outgrowth and branching is rapidly occurring. It was hypothesized that NOS1AP may affect dendrite number since the NMDA receptor has been implicated in playing a role in regulating dendrite number, and overexpression of NOS1AP is thought to disrupt NMDA receptor signaling. Two days after transfection, the neurons were fixed, and dedrites were counted as described in Akum et al., Nat Neurosci 2004 February; 7(2):145-52, 2004 and Chen et al., Mol Biol Cell 2005 November; 16(11):5103-14. […] Since dendrite morphology is crucial to interneuronal communication, the increases in short-form NOS1AP protein seen in patients suffering from neuropsychiatric disorders, such as schizophrenia and bipolar disorders, may result in altered dendrite morphology in the hippocampus, and perhaps the DLPFC.\nNeuronal cultures were prepared from hippocampi of rat embryos at 18 day gestation as described previously (Firestein et al., 1999). The hippocampi were dissociated, and cells were plated on poly-D-lysine-coated glass coverslips (12 mm diameter) at a density of 1800 cells/mm^2. Cultures were maintained in Neurobasal media supplemented with B27, penicillin, streptomycin, and L-glutamine. Cells were grown for 5-21 days in vitro (DIV) and used for specific experiments as indicated below.\ncDNAs encoding human NOS1AP and several mutant forms of human NOS1AP were cloned into the expression vector pCMV6-XL4 (Origene). These plasmids are referred to directly as NOS1AP (or NOS1AP mutants) without indicating the vector. In addition, the fusion proteins GFP-NOS1AP-L (GFP-NPL), GFP-NOS1AP-S (GFP-NPS), and GFP-NOS1AP-181-307 (GFP-NOS1AP-M, GFP-NPM) were constructed in the pEGFP-C1 vector (Clontech Inc.). Cultured hippocampal neurons were transfected with the appropriate cDNA constructs as follows. Neurons were transfected on DIV 10 using […] following the manufacturer's protocol (Qiagen Inc.). Neurons were transfected on DIV 2, 5, or 7 using LIPOFECTAMINE-2000 following the manufacturer's protocol (Invitrogen Inc.). The Amaxa Nucleofector kit for Rat Neurons (Amaxa Inc., kit VPG-1003) was used to transfect newly dissected neurons (DIV 0) before plating.\nNeurons were fixed in 4% paraformaldehyde in PBS for 30 minutes and then incubated in blocking solution (PBS containing 0.1% Triton X-100, 2% normal goat serum, and 0.02% sodium azide) for 1 h. All antibodies used were diluted in blocking solution. For GFP and NOS1AP or GFP and HA double immunostaining, dilutions of 1:1000 for rat anti-GFP and 1:500 for rabbit anti-NOS1AP, or 1:500 for goat anti-NOS1AP, or 1:1000 for mouse anti-HA (CRP Inc.) were used. […] Labeled cells were visualized by immunofluorescence on an Olympus Optical (Tokyo, Japan) IX50 microscope with a Cooke Sensicam charge-coupled device cooled camera fluorescence imaging system and Image Pro software (Media Cybernetics, Silver Spring, Md.).\nPrimary and secondary dendrite numbers were counted by hand with the experimenter blinded to the conditions (Akum et al., 2004). Pictures of neurons were contrast-enhanced and the numbers of primary and secondary dendrites for each neuron were recorded. […]"}, "NOS1AP": {"system": "NOS1AP", "assay": "Knockdown of endogenous NOS1AP protein, immunofluorescence intensity in primary dendrites", "format": "cell-based, rat", "conditions": "hippocampal neurons transfected DIV 10, fixed DIV 12 (48 hours)", "excerpt": "A) Hippocampal neurons were transfected with either pSUPER-scramble shRNA or pSUPER-NOS1AP shRNA at DIV10 and fixed at DIV12. B) Quantification of primary dendrites shown. C) Hippocampal neurons transfected with the same vectors as in A at DIV10 and fixed and immunostained for NOS1AP at DIV12. Zoomed inset indicates a representative region of primary dendrite showing corresponding fluorescence intensities of anti-NOS1AP. D) Quantification of NOS1AP levels in primary dendrite regions, as represented by normalized (total intensity/area) fluorescence intensity levels. *p<0.05 by Student's t-test.\nA shRNA was constructed to knock down NOS1AP-L with the sequence 5′-[…]-3′ (SEQ ID NO: 22; position 790 of NM_138922) using the pSUPER vector. The resulting siRNA is specific to the long isoform of NOS1AP. […] Importantly, primary dendrite number increases by 67% when NOS1AP is knocked down (FIGS. 16A and B)."}}, "note": "Entries after “also recorded” stand apart in the source; their conditions may differ.", "data": [{"compound": "N[C@@H](CCCP(=O)(O)O)C(=O)O", "note": "[APV]", "values": [{"measurement": "additional decrease in dendrite branching", "setting": "hippocampal neurons; NOS1AP-L transfected neurons treated with APV", "value": "does not result in any additional decrease"}, {"measurement": "drop in primary dendrite branching", "setting": "hippocampal neurons; control cells transfected with GFP alone, dosage of APV expected to fully block NMDA receptor function", "value": "approximately 25%"}]}, {"compound": "COC(=O)[C@@H](N)CCCNC(=N)N[N+](=O)[O-]", "note": "[L-NAME, N(ω)-nitro-L-arginine-methyl ester]", "values": [{"measurement": "difference in secondary dendrite number, NOS1AP-Long alone vs with L-NAME", "setting": "hippocampal neurons; 500 μM L-NAME, FIG. 10C", "value": "smaller, yet the distinction was still clear"}, {"measurement": "effect on NOS1AP-Long effects on dendrite branching", "setting": "hippocampal neurons; L-NAME 500 μM (FIG. 10 legend prints 500 nM) added right after transfection DIV 10, fixed DIV 12", "value": "partial reduction of NOS1AP-Long effects; also recorded: reduced NOS1AP-Long (CP-L) activity"}]}, {"compound": "shRNA against NOS1AP-L: shRNA to knock down NOS1AP-L, sequence 5′-GCAATATCTTCAGATGCAA-3′ (SEQ ID NO: 22), in the pSUPER vector", "values": [{"measurement": "increase in primary dendrite number", "setting": "hippocampal neurons; NOS1AP knocked down, DIV 10-12, 48 hours, vs scramble shRNA", "value": 67, "unit": "%"}, {"measurement": "decrease in NOS1AP expression (knockdown of endogenous NOS1AP protein)", "setting": "NOS1AP", "value": 40, "unit": "%"}, {"measurement": "decrease in NOS1AP expression (knockdown of endogenous NOS1AP protein)", "setting": "NOS1AP; listed as SEQ ID NO: 22", "value": 40, "unit": "%"}, {"measurement": "decrease in NOS1AP expression (knockdown of endogenous NOS1AP protein)", "setting": "NOS1AP; listed as shRNA Against NOS1AP Coding Sequence (Position 398)", "value": "Approximately 45%"}]}]}
